Where a SMILES comes first, the peptide text is derived from it.
target: HLA A*3201 (Homo sapiens, UniProt P04439, A270S/D101S/D185E/E176V/E277Q/F133L/G103R/G107R/G231S/H175R/I121M/I218V/I322F/K168Q/L105A/L300P/L318F/M331R/P208A/P217A/Q94H/R106L/R138Q/S129P/T104I/T323A/T345S/V100E/V321M/V358M); experiment: biochemical; assay type: binding

Point of comparison: `CC[C@H](C)[C@H](N)C(=O)N[C@@H](CC(C)C)C(=O)N[C@@H](Cc1ccc(O)cc1)C(=O)N[C@@H](Cc1ccc(O)cc1)C(=O)N[C@@H](CC(C)C)C(=O)N[C@@H](CO)C(=O)N[C@@H](C)C(=O)N[C@@H](CCCCN)C(=O)N[C@H](C(=O)O)[C@@H](C)CC` [3102.0300] (H-ILYYLSAKI-OH), IC50 8.9 nM. Against it:
- CC[C@H](C)[C@H](NC(=O)[C@H](CCC(N)=O)NC(=O)[C@H](CCC(=O)O)NC(=O)[C@H](CC(=O)O)NC(=O)[C@@H](NC(=O)[C@@H](N)CCSC)[C@@H](C)O)C(=O)N[C@@H](Cc1ccc(O)cc1)C(=O)N[C@@H](C)C(=O)N[C@@H](Cc1ccccc1)C(=O)O [3102.0453] (H-MTDEQIYAF-OH) — 2-fold higher, 18 nM
- C[C@@H](O)[C@H](NC(=O)CN)C(=O)N[C@@H](Cc1c[nH]cn1)C(=O)N[C@@H](Cc1ccc(O)cc1)C(=O)N[C@@H](CCC(N)=O)C(=O)N[C@@H](CC(N)=O)C(=O)N[C@@H](Cc1c[nH]cn1)C(=O)NCC(=O)N[C@@H](Cc1ccccc1)C(=O)O [3102.0417] (H-GTHYQNHGF-OH) — within 1.5-fold, 6 nM
- CC[C@H](C)[C@H](NC(=O)[C@H](CC(C)C)NC(=O)[C@H](CC(C)C)NC(=O)[C@H](CC(C)C)NC(=O)[C@H](CC(C)C)NC(=O)[C@H](CC(N)=O)NC(=O)CNC(=O)[C@H](CC(C)C)NC(=O)[C@@H](N)CCCCN)C(=O)O [3102.0406] (H-KLGNLLLLI-OH) — 12-fold lower, 0.72 nM
- CC[C@H](C)[C@H](NC(=O)[C@H](CC(C)C)NC(=O)[C@H](Cc1c[nH]cn1)NC(=O)[C@@H](N)CCCNC(=N)N)C(=O)N[C@@H](Cc1ccccc1)C(=O)N[C@@H](CO)C(=O)N[C@@H](Cc1ccc(O)cc1)C(=O)N[C@@H](C)C(=O)N[C@@H](Cc1ccccc1)C(=O)O [3102.0393] (H-RHLIFSYAF-OH) — 1.6-fold higher, 14 nM
- CC[C@H](C)[C@H](NC(=O)[C@H](C)NC(=O)[C@H](CCC(N)=O)NC(=O)[C@H](Cc1ccccc1)NC(=O)[C@H](C)NC(=O)[C@H](Cc1ccccc1)NC(=O)[C@H](CO)NC(=O)[C@@H](NC(=O)[C@@H](N)CCCNC(=N)N)[C@@H](C)O)C(=O)O [3102.0512] (H-RTSFAFQAI-OH) — 2.3-fold lower, 3.8 nM
- CC[C@H](C)[C@H](NC(=O)CNC(=O)[C@H](CC(C)C)NC(=O)[C@@H](NC(=O)[C@H](CC(C)C)NC(=O)[C@H](Cc1ccc(O)cc1)NC(=O)[C@H](CCSC)NC(=O)[C@@H](NC(=O)[C@@H](N)CCSC)[C@@H](C)CC)C(C)C)C(=O)O [3102.0477] (H-MIMYLVLGI-OH) — 11-fold higher, 98 nM
- CC(C)C[C@H](NC(=O)[C@@H](NC(=O)[C@H](Cc1ccc(O)cc1)NC(=O)[C@H](CCCNC(=N)N)NC(=O)[C@H](CC(C)C)NC(=O)[C@H](CCC(=O)O)NC(=O)[C@H](Cc1ccc(O)cc1)NC(=O)[C@@H](NC(=O)[C@@H](N)C(C)C)[C@@H](C)O)[C@@H](C)O)C(=O)O [3102.0294] (H-VTYELRYTL-OH) — within 1.5-fold, 12 nM
- CC[C@H](C)[C@H](NC(=O)[C@H](CO)NC(=O)[C@@H](NC(=O)[C@@H](NC(=O)[C@H](Cc1c[nH]c2ccccc12)NC(=O)[C@H](CCCCN)NC(=O)[C@H](CCSC)NC(=O)[C@H](CCSC)NC(=O)[C@@H](N)CCSC)[C@@H](C)CC)[C@@H](C)CC)C(=O)O [3102.0357] (H-MMMKWIISI-OH) — 52-fold lower, 0.17 nM
- CC[C@H](C)[C@H](NC(=O)[C@H](CCC(=O)O)NC(=O)[C@@H](NC(=O)[C@@H](NC(=O)[C@H](CCC(=O)O)NC(=O)[C@H](CC(N)=O)NC(=O)[C@@H](NC(=O)[C@@H](N)CCCCN)[C@@H](C)CC)C(C)C)C(C)C)C(=O)N[C@@H](Cc1ccccc1)C(=O)O [3102.0471] (H-KINEVVEIF-OH) — 2.1-fold higher, 19 nM
- CC[C@H](C)[C@H](NC(=O)[C@H](CC(=O)O)NC(=O)[C@H](CC(C)C)NC(=O)[C@@H](NC(=O)[C@@H](N)CC(C)C)[C@@H](C)O)C(=O)N[C@@H](Cc1ccccc1)C(=O)N[C@@H](Cc1ccc(O)cc1)C(=O)N[C@@H](CC(C)C)C(=O)N[C@@H](Cc1ccccc1)C(=O)O [3102.0354] (H-LTLDIFYLF-OH) — 2-fold lower, 4.4 nM
- CC[C@H](C)[C@H](NC(=O)CNC(=O)[C@@H](NC(=O)[C@@H](NC(=O)[C@H](CC(C)C)NC(=O)CNC(=O)[C@H](CS)NC(=O)[C@@H](NC(=O)[C@@H](N)C(C)C)[C@@H](C)CC)[C@@H](C)CC)C(C)C)C(=O)O [3102.0356] (H-VICGLIVGI-OH) — 2.9-fold higher, 26 nM
- CC[C@H](C)[C@H](NC(=O)[C@H](CCCCN)NC(=O)[C@H](CCC(N)=O)NC(=O)[C@H](C)NC(=O)[C@@H](NC(=O)CNC(=O)[C@H](Cc1ccc(O)cc1)NC(=O)[C@H](CC(C)C)NC(=O)[C@@H](N)CCSC)[C@@H](C)CC)C(=O)O [3102.0335] (H-MLYGIAQKI-OH) — within 1.5-fold, 12 nM
- CC[C@H](C)[C@H](N)C(=O)N[C@@H](CO)C(=O)N[C@@H](Cc1c[nH]c2ccccc12)C(=O)N[C@@H](CCSC)C(=O)N[C@@H](CCSC)C(=O)N[C@@H](CCCCN)C(=O)N[C@@H](CC(C)C)C(=O)NCC(=O)N[C@H](C(=O)O)[C@@H](C)CC [3102.0399] (H-ISWMMKLGI-OH) — 4.7-fold higher, 42 nM
- CC(C)C[C@H](NC(=O)[C@H](CO)NC(=O)[C@H](CC(N)=O)NC(=O)[C@H](CCCNC(=N)N)NC(=O)[C@H](CC(C)C)NC(=O)CNC(=O)[C@H](Cc1ccc(O)cc1)NC(=O)[C@@H](NC(=O)[C@@H](N)CCCNC(=N)N)[C@@H](C)O)C(=O)O [3102.0438] (H-RTYGLRNSL-OH) — 14-fold lower, 0.63 nM
- CC[C@H](C)[C@H](N)C(=O)N[C@H](C(=O)N[C@@H](Cc1ccccc1)C(=O)N[C@@H](CC(=O)O)C(=O)N[C@H](C(=O)N[C@@H](Cc1ccc(O)cc1)C(=O)N[C@@H](Cc1ccccc1)C(=O)N[C@@H](C)C(=O)N[C@H](C(=O)O)[C@@H](C)CC)[C@@H](C)CC)[C@@H](C)CC [3102.0346] (H-IIFDIYFAI-OH) — 9.6-fold lower, 0.93 nM
- CC[C@H](C)[C@H](NC(=O)[C@H](CO)NC(=O)[C@H](CS)NC(=O)[C@H](CCSC)NC(=O)[C@@H](N)C(C)C)C(=O)N[C@@H](CO)C(=O)N[C@@H](CC(C)C)C(=O)N[C@H](C(=O)N[C@@H](Cc1ccc(O)cc1)C(=O)O)[C@@H](C)O [3102.0394] (H-VMCSISLTY-OH) — within 1.5-fold, 11 nM
- CC[C@H](C)[C@H](NC(=O)[C@@H](NC(=O)[C@@H](NC(=O)[C@H](CCCCN)NC(=O)[C@H](CC(N)=O)NC(=O)[C@H](CC(N)=O)NC(=O)[C@H](C)NC(=O)[C@H](CC(C)C)NC(=O)[C@@H](N)CCCNC(=N)N)C(C)C)[C@@H](C)O)C(=O)O [3102.0434] (H-RLANNKVTI-OH) — 5.9-fold lower, 1.5 nM
- CC[C@H](C)[C@H](N)C(=O)N[C@H](C(=O)N[C@@H](Cc1c[nH]c2ccccc12)C(=O)N[C@@H](CCCCN)C(=O)NCC(=O)N[C@H](C(=O)N[C@@H](Cc1ccc(O)cc1)C(=O)N[C@H](C(=O)N[C@@H](Cc1ccc(O)cc1)C(=O)O)[C@@H](C)O)[C@@H](C)CC)[C@@H](C)CC [3102.0441] (H-IIWKGIYTY-OH) — 2.7-fold lower, 3.3 nM
- CC[C@H](C)[C@H](NC(=O)[C@H](CC(N)=O)NC(=O)[C@H](CC(C)C)NC(=O)[C@@H](NC(=O)[C@@H](N)C(C)C)[C@@H](C)O)C(=O)N[C@@H](CO)C(=O)N[C@@H](CO)C(=O)N[C@@H](CCCCN)C(=O)N[C@@H](Cc1ccccc1)C(=O)O [3102.0324] (H-VTLNISSKF-OH) — within 1.5-fold, 11 nM
- CC[C@H](C)[C@H](NC(=O)[C@@H](NC(=O)[C@H](CC(N)=O)NC(=O)[C@@H](NC(=O)[C@@H](NC(=O)[C@H](C)NC(=O)[C@H](Cc1c[nH]c2ccccc12)NC(=O)[C@H](CC(C)C)NC(=O)[C@@H](N)[C@@H](C)O)[C@@H](C)CC)[C@@H](C)CC)[C@@H](C)O)C(=O)O [3102.0403] (H-TLWAIINTI-OH) — 5.9-fold lower, 1.5 nM

— PMC2248166, “Quantitative peptide binding motifs for 19 human and mouse MHC class I molecules derived using positional scanning combinatorial peptide libraries” (Immunome Research, 2008)
